Experimental findings from patent US8440710B2, “HSL inhibitors useful in the treatment of diabetes” (Hoffmann-La Roche Inc., priority 2009, dated 2013) are described below.

The term IC50 denotes the midpoint of a concentration-inhibition curve.

The target of this experiment is T1, human HSL (Homo sapiens, UniProt Q05469).
T1 construct: generate a full length human HSL ORF with a 3′-His6 tag; made in house; host or cells: High 5 insect cells (baculovirus, pFast-BAC)
T1 sequence (Q05469 1-1076): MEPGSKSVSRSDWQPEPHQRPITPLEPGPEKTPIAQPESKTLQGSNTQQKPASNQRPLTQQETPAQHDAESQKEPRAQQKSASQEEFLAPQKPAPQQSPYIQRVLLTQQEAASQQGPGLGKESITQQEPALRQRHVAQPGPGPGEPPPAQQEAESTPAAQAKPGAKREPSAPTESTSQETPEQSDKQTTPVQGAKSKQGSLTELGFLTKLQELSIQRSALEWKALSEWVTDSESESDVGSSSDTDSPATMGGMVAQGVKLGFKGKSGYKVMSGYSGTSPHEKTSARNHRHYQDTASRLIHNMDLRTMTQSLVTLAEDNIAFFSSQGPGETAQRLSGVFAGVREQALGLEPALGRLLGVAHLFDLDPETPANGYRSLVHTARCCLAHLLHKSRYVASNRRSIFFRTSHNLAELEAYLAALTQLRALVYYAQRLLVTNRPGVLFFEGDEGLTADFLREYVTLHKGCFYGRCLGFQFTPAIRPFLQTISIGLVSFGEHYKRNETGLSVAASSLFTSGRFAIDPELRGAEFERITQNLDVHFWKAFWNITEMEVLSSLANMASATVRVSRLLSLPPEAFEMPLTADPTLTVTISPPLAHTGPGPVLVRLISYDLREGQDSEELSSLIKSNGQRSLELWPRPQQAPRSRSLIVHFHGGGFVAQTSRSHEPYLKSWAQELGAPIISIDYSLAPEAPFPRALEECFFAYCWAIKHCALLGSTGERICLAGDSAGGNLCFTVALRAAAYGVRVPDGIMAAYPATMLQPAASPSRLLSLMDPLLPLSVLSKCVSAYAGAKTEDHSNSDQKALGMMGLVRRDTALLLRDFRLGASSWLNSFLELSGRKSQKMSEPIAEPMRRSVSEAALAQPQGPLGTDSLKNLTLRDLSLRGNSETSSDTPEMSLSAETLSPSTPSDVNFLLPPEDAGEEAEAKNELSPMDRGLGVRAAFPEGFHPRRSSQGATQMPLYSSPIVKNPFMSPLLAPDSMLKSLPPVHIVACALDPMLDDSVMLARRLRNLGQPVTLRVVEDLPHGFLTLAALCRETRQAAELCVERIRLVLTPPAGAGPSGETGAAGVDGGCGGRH
The experiment can be described thus: Human Hormone-Sensitive Lipase (HSL) enzyme inhibition assay (colorimetric, DMPT substrate). The class given is biochemical. The settings on record: human full length HSL-His6, 2,3-dimercapto-1-propanol tributyrate substrate, 37° C. 20 minutes, absorbance at 405 nm; read-out: HSL hum IC50. Summed up:
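Full-length human HSL with C-terminal His6, expressed in baculovirus-infected High 5 cells and Ni-NTA purified, was added (15 ug/ml stock) to 1.5 mM DMPT in 100 mM MOPS pH 7.2, 0.2 mg/ml fatty acid-free BSA containing compound. After 20 min at 37 °C, DTNB with SDS/Triton X-100 was added; A405 read after 15 min at RT.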
Consider `O=C1N(c2ccc(OCC(F)(F)F)nc2)CC[C@]12CC[C@@](O)(COCC(F)F)CC2` [Example 295, (5α,8α)-8-(2,2-Difluoro-ethoxymethyl)-8-hydroxy-2-[6-(2,2,2-trifluoro-ethoxy)-pyridin-3-yl]-2-aza-spiro[4.5]decan-1-one], for which the half-inhibitory concentration (IC50) worked out at 40 nM. As for `CCC[C@]1(O)CC[C@]2(CCN(Cc3ccc(OC(F)(F)F)cc3)C2=O)CC1` [Example 188, (5α,8α)-8-hydroxy-8-propyl-2-(4-(trifluoromethoxy)benzyl)-2-aza-spiro[4.5]decan-1-one], the IC50 turned out to be 80 nM.

For the compound `CC[C@]1(O)CC[C@]2(CCN(c3ccc(O[C@@H](C)C(F)(F)F)nc3)C2=O)CC1` [Example 171, (5α,8α)-8-Ethyl-8-hydroxy-2-[6-((S)-2,2,2-trifluoro-1-methyl-ethoxy)-pyridin-3-yl]-2-aza-spiro[4.5]decan-1-one], the 50% inhibitory concentration (IC50) was determined as 30 nM. Turning to `CCO[C@H]1CC[C@]2(CCN(c3ccc(OC(F)(F)F)cc3)C2=O)CC1` [Example 41, (5α,8α)-8-Ethoxy-2-(4-trifluoromethoxy-phenyl)-2-aza-spiro[4.5]decan-1-one], the IC50 was found to be 390 nM. `CCC[C@]1(O)CC[C@]2(CCN(c3ccc(O[C@H](C)C(F)(F)F)cc3)C2=O)CC1` [Example 164b, (5α,8α)-8-Hydroxy-8-propyl-2-[4-((R)-2,2,2-trifluoro-1-methyl-ethoxy)-phenyl]-2-aza-spiro[4.5]decan-1-one]: the IC50 worked out at 20 nM. Regarding `CCCCOC[C@]1(O)CC[C@]2(CCN(c3ccc(OCC(F)(F)F)cc3)C2=O)CC1` [Example 238, (5α,8α)-8-Butoxymethyl-8-hydroxy-2-[4-(2,2,2-trifluoro-ethoxy)-phenyl]-2-aza-spiro[4.5]decan-1-one], the half-maximal inhibitory concentration (IC50) stood at 20 nM. In the case of `CCc1ccc(N2CC[C@]3(CC[C@](O)(COc4ccccc4)CC3)C2=O)cc1` [Example 227, (5α,8β)-2-(4-Ethyl-phenyl)-8-hydroxy-8-phenoxymethyl-2-aza-spiro[4.5]decan-1-one], the IC50 is 700 nM. With `CC(C)OC[C@]1(O)CC[C@@]2(CCN(c3ccc(O[C@@H](C)C(F)(F)F)cc3)C2=O)CC1` [Example 307, (5α,8β)-8-Hydroxy-8-isopropoxymethyl-2-[4-((S)-2,2,2-trifluoro-1-methyl-ethoxy)-phenyl]-2-aza-spiro[4.5]decan-1-one], the IC50 is 200 nM.

In the case of `C[C@@H](Oc1ccc(N2CC[C@]3(CC[C@@](O)(COCC(F)F)CC3)C2=O)cc1)C(F)(F)F` [Example 301, (5α,8α)-8-(2,2-Difluoro-ethoxymethyl)-8-hydroxy-2-[4-((R)-2,2,2-trifluoro-1-methyl-ethoxy)-phenyl]-2-aza-spiro[4.5]decan-1-one], the IC50 is 10 nM. Take `O=C1CCCCN1C[C@]1(O)CC[C@]2(CCN(c3ccc(OCC(F)(F)F)cc3)C2=O)CC1` [Example 368, (5α,8α)-8-Hydroxy-8-(2-oxo-piperidin-1-ylmethyl)-2-[4-(2,2,2-trifluoro-ethoxy)-phenyl]-2-aza-spiro[4.5]decan-1-one]: the concentration for half-maximal inhibition (IC50) worked out at 80 nM. For `CC(C)Oc1ccc(N2CC[C@]3(CC[C@@](O)(C(C)C)CC3)C2=O)cc1` [Example 196, (5α,8α)-8-hydroxy-2-(4-isopropoxyphenyl)-8-isopropyl-2-aza-spiro[4.5]decan-1-one], the half-inhibitory concentration (IC50) was found to be 10 nM. Then `C[C@H](Oc1ccc(N2CC[C@]3(CC[C@@](O)(COCC(F)F)CC3)C2=O)cn1)C(F)(F)F` [Example 297, (5α,8α)-8-(2,2-Difluoro-ethoxymethyl)-8-hydroxy-2-[6-((S)-2,2,2-trifluoro-1-methyl-ethoxy)-pyridin-3-yl]-2-aza-spiro[4.5]decan-1-one], with 20 nM; and `CCOC[C@]1(O)CC[C@]2(CCN(c3ccc(O[C@@H](C)C(F)(F)F)cc3)C2=O)CC1` [Example 251, (5α,8α)-8-Ethoxymethyl-8-hydroxy-2-[4-((S)-2,2,2-trifluoro-1-methyl-ethoxy)-phenyl]-2-aza-spiro[4.5]decan-1-one], with 10 nM. With `CC(C)[C@]1(O)CC[C@]2(CCN(c3ccc(OCC(F)(F)F)cc3)C2=O)CC1` [Example 103, (5α,8α)-8-Hydroxy-8-isopropyl-2-[4-(2,2,2-trifluoro-ethoxy)-phenyl]-2-aza-spiro[4.5]decan-1-one], the IC50 was determined as 20 nM. On to `CCOC[C@]1(O)CC[C@]2(CCN(c3ccc(O[C@H](C)C(F)(F)F)cc3)C2=O)CC1` [Example 253, (5α,8α)-8-Ethoxymethyl-8-hydroxy-2-[4-((R)-2,2,2-trifluoro-1-methyl-ethoxy)-phenyl]-2-aza-spiro[4.5]decan-1-one], for which the IC50 came out at 20 nM. On to `O=C1N(c2ccc(OCC(F)(F)F)cc2)CC[C@]12CC[C@](O)(COCc1ccccc1)CC2` [Example 241, (5α,8β)-8-Benzyloxymethyl-8-hydroxy-2-[4-(2,2,2-trifluoro-ethoxy)-phenyl]-2-aza-spiro[4.5]decan-1-one], for which the IC50 is 90 nM. In the case of `O=C1N(c2ccc(OC(F)(F)F)cc2)CC[C@]12CC[C@](O)(C(F)(F)F)CC2` [Example 113, (5α,8β)-8-Hydroxy-2-(4-trifluoromethoxy-phenyl)-8-trifluoromethyl-2-aza-spiro[4.5]decan-1-one], the half-inhibitory concentration (IC50) is 2180 nM. As to `CC(C)[C@]1(O)CC[C@@]2(CCN(c3ccc(OC(F)(F)F)cc3)C2=O)CC1` [Example 69, (5α,8β)-8-Hydroxy-8-isopropyl-2-(4-trifluoromethoxy-phenyl)-2-aza-spiro[4.5]decan-1-one], the IC50 was 560 nM. Turning to `C[C@@H](Oc1ccc(N2CC[C@]3(CC[C@@](O)(C(F)(F)F)CC3)C2=O)cn1)C(F)(F)F` [Example 174, (5α,8α)-8-Hydroxy-8-trifluoromethyl-2-[6-((R)-2,2,2-trifluoro-1-methyl-ethoxy)-pyridin-3-yl]-2-aza-spiro[4.5]decan-1-one], the IC50 amounted to 60 nM. Regarding `C[C@H](Oc1ccc(N2CC[C@]3(CC[C@@](O)(C4CC4)CC3)C2=O)cn1)C(F)(F)F` [Example 180, (5α,8α)-8-Cyclopropyl-8-hydroxy-2-[6-((S)-2,2,2-trifluoro-1-methyl-ethoxy)-pyridin-3-yl]-2-aza-spiro[4.5]decan-1-one], the IC50 is 30 nM. Consider `CN(C)C(=O)C[C@]1(O)CC[C@]2(CCN(c3ccc(OC(F)(F)F)cc3)C2=O)CC1` [Example 156, 2-[(5α,8α)-8-Hydroxy-1-oxo-2-(4-trifluoromethoxy-phenyl)-2-aza-spiro[4.5]dec-8-yl]-N,N-dimethyl-acetamide], for which the IC50 is 60 nM. Next, `C[C@H](Oc1ccc(N2CC[C@]3(CC[C@@](O)(C(F)(F)F)CC3)C2=O)cn1)C(F)(F)F` [Example 173, (5α,8α)-8-Hydroxy-8-trifluoromethyl-2-[6-((S)-2,2,2-trifluoro-1-methyl-ethoxy)-pyridin-3-yl]-2-aza-spiro[4.5]decan-1-one]: 50 nM; `CC(C)SC[C@]1(O)CC[C@]2(CCN(c3ccc(OCC(F)(F)F)cc3)C2=O)CC1` [Example 306, (5α,8α)-8-Hydroxy-8-isopropylsulfanylmethyl-2-[4-(2,2,2-trifluoro-ethoxy)-phenyl]-2-aza-spiro[4.5]decan-1-one]: 10 nM; `CCC[C@]1(O)CC[C@]2(CCN(c3ccc(C4CC4)cc3)C2=O)CC1` [Example 75, (5α,8α)-2-(4-Cyclopropyl-phenyl)-8-hydroxy-8-propyl-2-aza-spiro[4.5]decan-1-one]: 30 nM. As for `O=C1N(c2ccc(OC(F)(F)F)cc2)CC[C@]12CC[C@@H](Oc1cnccn1)CC2` [Example 19, (5α,8β)-8-(Pyrazin-2-yloxy)-2-(4-trifluoromethoxy-phenyl)-2-aza-spiro[4.5]decan-1-one], the IC50 was 140 nM.

Consider `C=C(C)[C@]1(O)CC[C@@]2(CCN(c3ccc(OCC(F)(F)F)cc3)C2=O)CC1` [Example 106, (5α,8β)-8-Hydroxy-8-(prop-1-en-2-yl)-2-(4-(2,2,2-trifluoroethoxy)phenyl)-2-aza-spiro[4.5]decan-1-one], for which the concentration for half-maximal inhibition (IC50) was determined as 1350 nM. Turning to `O=C1N(c2ccc(CC(F)(F)F)cc2)CC[C@]12CC[C@@](O)(COCC(F)(F)F)CC2` [Example 287, (5α,8α)-8-Hydroxy-8-(2,2,2-trifluoro-ethoxymethyl)-2-[4-(2,2,2-trifluoro-ethyl)-phenyl]-2-aza-spiro[4.5]decan-1-one], the IC50 was found to be 10 nM.
